Measurements as given in US12134769B2, “MicroRNA-198 as a tumor suppressor in ovarian cancer” (Baylor College of Medicine, priority 2011, dated 2024).
Where “and” joins values, the source holds several entries; their conditions need not be identical. Equal values may be shown once.

Columns and labels:
[1] = system: MIA-MSLN cells; assay: Anchorage independent growth assay in soft agar; format: cell-based, human; conditions: MIA-MSLN-miR-198 vs MIA-MSLN, 15 days, ImageJ
Description: A soft agar assay for colony formation was performed by coating 35 mm dishes with a combination of 0.5% base agar and 0.7% top agar. Base agar preparation: 1% LMP Agarose (DNA grade) (Baylor College of Medicine) was melted in 1× incomplete DMEM, microwaved, and cooled to 40° C. in a water bath. Equal volumes of 20% FBS DMEM pre-warmed to 40° C. in water bath were mixed to give 0.5% Agar+10% DMEM, of which 1.5 ml/35 m Petri dish was added and allowed to set at room temperature.
Top agar preparation: 0.7% LMP Agarose (DNA grade) in 1×DMEM was prepared in the same manner as above. Cells were trypsinized and diluted to 0.1×10^6 cells/ml, in the 20% FBS DMEM; 5,000 cells/dish were plated in duplicate. The plates were then incubated at 37° C. in a humidified incubator for 15 days. Following incubation, the plates were stained with 0.5 ml of 1% MTT for 2 h, and colonies were photographed using a dissecting microscope. Images were analyzed using IMAGEJ software.

[2] = system: AsPC1 cells; assay: Cell proliferation assay (MTT); format: cell-based, human; conditions: AsPC1-miR-198 cells
Description: (§1) Cells were seeded in 96-well plates (2×10^3 cells per well) and serum starved for 24 h prior to differential FBS additions. 3-(4,5-Dimethylthiazol-2-yl)-2,5-diphenyltetrazolium bromide (MTT) was used to measure cell proliferation as previously described (Bharadwaj et al., 2011b).
(§2) Cell growth was assessed using MTT at 2, 3, 4, 5 and 6 days after releasing from starvation (not all data shown). Briefly, twenty microliters of MTT reagent mixed with 100 μL of growth medium was added to each well and incubated at 37° C. for 2 h. Cells were then lysed overnight using 100 μl of lysis buffer consisting of 20% SDS in 1:1 dimethyl formamide; H2O solution. Absorbance was recorded at 520 nm with an EL-800 universal microplate reader (Bio-Tek Instruments). Relative proliferation was calculated by dividing the reading by a Day 0 reading taken prior to serum starvation.

[3] = system: MIA-MSLN cells; assay: Cell proliferation assay (MTT); format: cell-based, human; conditions: MIA-MSLN-miR-198 cells, after 5 days
Description: as §1, §2

[4] = system: MIA-MSLN cells; assay: Subcutaneous pancreatic cancer mouse model; format: in vivo, nude mice
Description: All animal procedures were conducted under the guidelines approved by the Institutional Animal Care and Use Committee (IACUC). Cells (3×10^6) were inoculated into the right flank (s.c. model) or into the pancreas (orthotopic model) of 5 to 6-week-old male nude mice (NCI-Charles River) as previously described (Li et al., 2007). Tumor size was measured using a digital caliper and tumor volume was determined with the following formula: tumor volume (mm^3)=[length (mm)]×[width (mm)]2×0.52. For the orthotopic model, after 4 weeks all surviving mice were euthanized and evaluated macroscopically for the presence of orthotopic tumor and metastases in the abdominal cavity. Tumor spread was further visualized using a fluorescent filter to view GFP expression. The tumor nodules were explanted, counted, and weighed. Tumor tissues were stored in RNAse Later solution (Ambion) in −80° for subsequent RNA/miRNA isolation and analysis.

## miR-198: microRNA-198, SEQ ID NO: 1 gguccagaggggagauagg; used as transfected precursors (Ambion) or Lenti-miR stable overexpression (GGUCCAGAGGGGAGAUAGG; listed as RNA, chemistry not given here; listed as Homo sapiens)
[1]
  reduction in mean threshold intensity of soft agar colonies: ~20 fold
[2]
  proliferation rates vs AsPC1-miR-Ctrl cells: significantly lower proliferation rates
[3]
  lower proliferation rates than MIA-MSLN and MIA-MSLN-miR-Ctrl cells: approximately 3 fold
[4]; s.c. MIA-MSLN-miR-198 cells
  mice that developed tumors: 3 of 9
[4]; s.c. MIA-MSLN-miR-198 cells, day 45 post injection, the three mice with tumors
  average tumor volume: 37 mm^3 and 36 mm^3
[4]; s.c. miR-198 overexpressing cells, tumor-free for 45 days
  mice with no signs of tumor development: 6/9
[4]; s.c., the three mice that presented small tumors
  first measurable tumors: 35 day post injection
